Read-outs that look alike come from different tables or passages of the source.
Legend:
[1] = tested on: hiPSC-CM (iCell Cardiomyocytes^2); assay: Intracellular miRNA expression by RT-qPCR in hiPSC-CM pellets after 72-hour treatment
How it was run: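 After 72-hour treatment and RTCA CardioECR assessment, total RNA from hiPSC-CM pellets was reverse transcribed, pre-amplified and quantified by TaqMan RT-qPCR against a 17-miRNA panel. Triplicates were pooled, so no statistical analysis was performed.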

[2] = tested on: hiPSC-CM (iCell Cardiomyocytes^2); assay: RTCA CardioECR assessment (impedance and electrophysiology parameters)
How it was run: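 iCell^2 cardiomyocytes on fibronectin-coated ePlates monitored continuously by impedance for cell index, beating rate and amplitude. Field potential duration and spike amplitude were recorded from day 4–6 after monolayer formation. Data were double-normalized to DMSO control and baseline, with variability given as SD.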

[3] = ref extensive literature search, cited from earlier work
[4] = hiPSC-CM, 72-hour treatment, at least 20% change, Supplementary Table 1
[5] = hiPSC-CM, 72-hour treatment, lowest concentration causing at least 20% change from baseline

## CC(C)C[C@H](NC(=O)[C@H](CCc1ccccc1)NC(=O)CN1CCOCC1)C(=O)N[C@@H](Cc1ccccc1)C(=O)N[C@@H](CC(C)C)C(=O)[C@@]1(C)CO1 [Carfilzomib]
[1]; 0.3 µM, 72 h
  hsa-miR-7-5p fold change, intracellular: 8.1
  hsa-miR-29a-5p fold change, intracellular: 0.4
  hsa-miR-96-5p fold change, intracellular: 21.0
  hsa-miR-126-3p fold change, intracellular: 2.1
  hsa-miR-133b fold change, intracellular: 5.5
  hsa-miR-146b-5p fold change, intracellular: 0.3
  hsa-miR-182-5p fold change, intracellular: 12.6
  hsa-miR-185-3p fold change, intracellular: 1.1
  hsa-miR-187-3p fold change, intracellular: 0.7
  hsa-miR-208b-3p fold change, intracellular: 1.1
  hsa-miR-365a-5p fold change, intracellular: 0.2
[1]; 1 µM, 72 h
  hsa-miR-7-5p fold change, intracellular: 1.3
  hsa-miR-29a-5p fold change, intracellular: 1.4
  hsa-miR-96-5p fold change, intracellular: 5.6
  hsa-miR-126-3p fold change, intracellular: 0.9
  hsa-miR-133b fold change, intracellular: 0.3
  hsa-miR-146b-5p fold change, intracellular: 0.08
  hsa-miR-182-5p fold change, intracellular: 20.8
  hsa-miR-185-3p fold change, intracellular: 9.0
  hsa-miR-187-3p fold change, intracellular: 1.7
  hsa-miR-208b-3p fold change, intracellular: 1.0
  hsa-miR-365a-5p fold change, intracellular: 0.01
[1]; 3 µM, 72 h
  hsa-miR-7-5p fold change, intracellular: 2.3
  hsa-miR-96-5p fold change, intracellular: 10.7
  hsa-miR-126-3p fold change, intracellular: 0.5
  hsa-miR-133b fold change, intracellular: 0.4
  hsa-miR-146b-5p fold change, intracellular: 0.06
  hsa-miR-182-5p fold change, intracellular: 14.0
  hsa-miR-185-3p fold change, intracellular: 3.3
  hsa-miR-187-3p fold change, intracellular: 2.1
  hsa-miR-208b-3p fold change, intracellular: 1.0
  hsa-miR-365a-5p fold change, intracellular: 0.04
[1]; 10 µM, 72 h
  hsa-miR-7-5p fold change, intracellular: 3.8
  hsa-miR-29a-5p fold change, intracellular: 0.8
  hsa-miR-96-5p fold change, intracellular: 1.6
  hsa-miR-126-3p fold change, intracellular: 0.4
  hsa-miR-133b fold change, intracellular: 0.3
  hsa-miR-146b-5p fold change, intracellular: 0.01
  hsa-miR-182-5p fold change, intracellular: 5.7
  hsa-miR-185-3p fold change, intracellular: 0.2
  hsa-miR-187-3p fold change, intracellular: 20.5
  hsa-miR-208b-3p fold change, intracellular: 1.0
  hsa-miR-365a-5p fold change, intracellular: 0.02
[1]; fold change ≥2, 72 h
  miRNAs upregulated at the MEC overall (hiPSC-CM pellet): miR-126-3p, miR-133b, miR-182-5p, miR-184, miR-187-3p, miR-7-5p, miR-96-5p
[1]; lowest concentration tested which produced miRNA upregulation (fold change ≥2), 72 h
  miRNAs hiPSC-CM pellet, MEC overall: 0.3 µM
[2]; hiPSC-CM, 72-hour treatment
  effect on BR at the lowest concentration tested: quiescence (beat stop)
[2]; hiPSC-CM, 72-hour treatment, at least 10% change
  Field Potential Duration MEC: 0.3 µM
[2]; hiPSC-CM, 72-hour treatment, at least 20% change
  Contractility Amplitude MEC: 0.3 µM
[2]; [4]
  Beating Rate MEC: 0.3 µM
  Cell Index MEC: 0.3 µM
[2]; hiPSC-CM, 72-hour treatment, at least 40% change
  Spike Amplitude (SA) MEC: 0.3 µM
[2]; [5]
  Beating rate (BR) MEC: 0.3 µM
  Cell index (CI) MEC: 0.3 µM
[2]; hiPSC-CM, change ≥20%, Table 2
  RTCA, MEC (BR): 0.3 µM (CI, BR (Q))
  RTCA, MEC (CI): 0.3 µM (CI, BR (Q))
[3]; Supplementary Table 1
  Cmax total: 5.88 µM
[3]; Table 1
  Cmax total: 5.88 µM

## COc1cccc2c1C(=O)c1c(O)c3c(c(O)c1C2=O)C[C@@](O)(C(=O)CO)C[C@@H]3O[C@H]1C[C@H](N)[C@@H](O)[C@H](C)O1 [Epirubicin]
[1]
  miRNAs hiPSC-CM pellet, MEC overall: 0.3 µM
  miRNAs upregulated at the MEC overall (hiPSC-CM pellet): miR-7-5p, miR-29a-5p, miR-126-3p, miR-146b-5p, miR-182-5p, miR-184, miR-185-3p, miR-187-3p, miR-208b-3p, miR-365a-5p
[2]; hiPSC-CM, change ≥20%, Table 2
  RTCA, MEC (CI): 0.3 µM (CI, BR (Q))
[2]; human, 72 h
  Beating Rate MEC: 0.3 µM
  Beating rate (BR) MEC: 0.3 µM
  Contractility Amplitude MEC: 0.3 µM
  Field Potential Duration MEC: 0.3 µM
  RTCA, MEC (BR): 0.3 µM (CI, BR (Q))
  Spike Amplitude (SA) MEC: 0.3 µM
[3]; Supplementary Table 1
  Cmax total: 16.6 µM
[3]; Table 1
  Cmax total: 16.60 µM

From publication PMC12332266 (Frontiers in Pharmacology, 2025)
